Laboratory results as given in US20080286338A1, “Drug delivery system with scleral lens” (Boston Foundation for Sight, priority 2007, published 2008).
Read-outs that look alike come from different tables or passages of the source.

Experiments:
[1] = system: corneal neovascularization; assay: Off-label topical AVASTIN for corneal neovascularization using the scleral lens drug delivery system; assay type: in vivo
Text: This study using AVASTIN® off-label, topically, to treat corneal neovascularization was repeated using the scleral lens drug delivery system. […] This therapeutic effect was achieved without BAK. Instead, the expanded pre-corneal tear film of the scleral lens drug delivery system provided adequate bioavailability of the drug without exposing the cornea to BAK.

[2] = system: corneal neovascularization; settings: solution of 1% AVASTIN and 0.01% BAK, one drop, four times per day for at least thirty days, topical drops; cited from earlier work

## bevacizumab [AVASTIN®]
[1]; one drop of 1% AVASTIN added to expanded pre-corneal tear film of artificial tears in scleral lens twice per day, without BAK, by thirty days, continued benefit over subsequent sixty days
  therapeutic effect on corneal neovascularization: achieved a therapeutic effect by thirty days with continued benefit over the subsequent sixty days
[1]; scleral lens drug delivery system
  regression of corneal neovascularization (clinical photos, FIG. 5): regression of corneal neovascularization
[2]
  therapeutic effect on corneal neovascularization: Therapeutic effect was reported
